≈ marks a conversion by molar mass, not a printed value. Where two headings read alike, the source gives them in different places.
Legend:
[1] = system: Phytophthora infestans; assay: whole plant or invertebrate; assay type: in vivo; details: Phytophthora infestans, in Solanum lycopersicum, read-out: disease control rating, Ex. H, 100 PPM
[2] = system: Fusarium oxysporum f. sp. cucumerinum; assay: Example L cucumber wilt; assay type: in vivo; details: 336 h, 5 kg/ha, read-out: disease control rating, Ex. L
Description: […] Seeds and soil were then inoculated with a mixture of sand, cereal and mycelium of the fungus Fusarium oxysporum f. sp. cucumerinum, causal agent of cucumber wilt, and incubated in a growth chamber at 30° C. for 14 days. Disease ratings were then made.

[3] = system: Puccinia recondita; assay: Example G wheat leaf rust; assay type: in vivo; details: read-out: disease control rating, Ex. G
[4] = system: Cercosporidium personatum; assay: Example B Peanut Late Leafspot; assay type: in vivo; details: Nothopassalora personata, read-out: disease control rating, Ex. B
Outline: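 Compounds were dissolved in acetone (6% of final volume) and suspended at 100 or 20 ppm in purified water containing 250 ppm TREM 014 surfactant (polyhydric alcohol esters). The suspension was sprayed to run-off on peanut seedlings.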

[5] = system: Rhizoctonia solani; assay: Example K cotton blight; assay type: in vivo; details: 336 h, 5 kg/ha, read-out: disease control rating, Ex. K
Description: […] Seeds and soil were then inoculated with a mixture of sand, cereal and mycelium of the fungus Rhizoctonia solani, causal agent of cotton blight, and incubated in a growth chamber at 30° C. for 14 days. Disease ratings were then made.

[6] = system: Botrytis cinerea; assay: Example C bean grey mold; assay type: in vivo; details: Botrytis cinerea, 24 h, read-out: disease control rating, Ex. C
Outline: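 Test compounds were taken up in acetone (6% of final volume) and suspended at 100 or 20 ppm in purified water containing 250 ppm TREM 014 surfactant (polyhydric alcohol esters). Broad bean seedlings were sprayed with this suspension until run-off.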

[7] = system: Pyricularia oryzae; assay: whole plant or invertebrate; assay type: in vivo; details: Pyricularia oryzae, 120 h; for pest or weed control at 100 ppm: read-out: disease control rating, Ex. E, 100 PPM; for pest or weed control at 20 ppm: read-out: disease control rating, Ex. E, 20 PPM
[8] = system: Rhizoctonia solani; assay: Example F rice sheath blight; assay type: in vivo; details: Rhizoctonia solani, 144 h, read-out: disease control rating, Ex. F
Outline: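 Compounds, dissolved in acetone at 6% of final volume, were suspended at 100 or 20 ppm in purified water with 250 ppm polyhydric alcohol ester surfactant (TREM 014). Rice seedlings were sprayed with this suspension to run-off.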

[9] = system: Candida albicans ATCC 11651; assay: In vitro antifungal MIC, microtiter broth dilution; details: for MIC: Candida albicans, ATCC11651, 24 h, read-out: MIC values, C. albicans, 30°, 24 hours
[10] = system: Pythium aphanadermatum; assay: Example J cucumber damping off; assay type: in vivo; details: Pythium, 336 h; 5 kg/ha; read-out: disease control rating, Ex. J
Outline: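 This cucumber damping-off test used soil and seeds infested with a sand–cereal preparation carrying mycelium of Pythium aphanadermatum. Incubation took place in a growth chamber held at 30° C. for 14 days. Afterwards, the extent of disease was scored as a disease control rating.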

[11] = system: Erysiphe graminis f. sp. tritici; assay: Example D wheat powdery mildew; assay type: in vivo; details: Blumeria graminis, 144 h, read-out: disease control rating, Ex. D
Outline: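 Compounds were dissolved in acetone (6% of final volume), then suspended at 100 or 20 ppm in purified water containing 250 ppm TREM 014 surfactant. Wheat seedlings were sprayed with this suspension to run-off.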

[12] = system: Sclerotium rolfsii; assay: Example M southern blight; assay type: in vivo; details: Agroathelia rolfsii, 336 h; 5 kg/ha; read-out: disease control rating, Ex. M
Description: […] Seeds and soil were then inoculated with a mixture of sand, cereal and mycelium of the fungus Sclerotium rolfsii, causal agent of sourthern blight, and incubated in a growth chamber at 30° C. for 14 days. Disease ratings were then made.

[13] = system: Plasmorpara viticola; assay: Example I grape downy mildew; assay type: in vivo; details: read-out: disease control rating, Ex. I
Outline: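 Grape seedlings sprayed to run-off; test suspension 100 or 20 ppm compound, acetone 6% v/v final, 250 ppm TREM 014 in purified water.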

[14] = system: Venturia inaequalis; assay: Example A apple scab; assay type: in vivo; details: read-out: disease control rating, Ex. A
Outline: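 Test compounds were dissolved in acetone (6% of final volume) and suspended at 100 or 20 ppm in purified water containing 250 ppm of the surfactant TREM 014 (polyhydric alcohol esters). Apple seedlings were sprayed with this suspension to the point of run-off.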

[15] = system: Candida albicans ATCC 11651; assay: In vivo systemic Candida infection in mice, primary assay; set-up: species or system Candida albicans; CF-1 female mice; details: Candida albicans, 150 mg/kg per day, read-out: % Survival
Outline: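 CF-1 female mice (20 g, 10 per group) were infected IV with 0.2 ml of 1×10^7/ml C. albicans ATCC 11651, then given test compound subcutaneously at 50 or 150 mg/kg/day at 1 and 6 h post-infection and once daily for three more days. Survival was followed for 21 days against infected untreated mice; ≥70% protection at 14 days was scored active.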

[16] = system: Aspergillus fumigatus ATCC 28214; assay: In vitro antifungal MIC, microtiter broth dilution; details: Aspergillus fumigatus, ATCC28214, 24 h, read-out: MIC values, A. fumigatus, 30°, 24 hours

Row | Structure (SMILES) | pest or weed control at 100 ppm [1] [%] | pest or weed control at 5000 g/ha [2] [%] | pest or weed control at 100 ppm [3] [%] | pest or weed control at 100 ppm [4] [%] | pest or weed control at 5000 g/ha [5] [%] | pest or weed control at 100 ppm [6] [%] | pest or weed control at 100 ppm [7] [%] | pest or weed control at 100 ppm [8] [%] | MIC [9] [µg/mL] | pest or weed control at 5000 g/ha [10] [%] | pest or weed control at 100 ppm [11] [%] | pest or weed control at 5000 g/ha [12] [%] | pest or weed control at 100 ppm [13] [%] | pest or weed control at 100 ppm [14] [%] | responders at 150 mg/kg ([15]; ATCC11651, 168 h, day 7) [%] | responders at 150 mg/kg ([15]; ATCC11651, 336 h, day 14) [%] | responders at 150 mg/kg ([15]; ATCC11651, 504 h, day 21) [%] | MIC [16] [µg/mL] | other results
1 | C=C(CO)C(O)(Cn1cncn1)c1ccc(F)cc1 (stereo not shown) [Example 450] | 0 | 0 | 30 | 0 | 0 | 54 | 46 | 34 | > 100 | 0 | 11 | 0 | 51 |  |  |  |  |  | 
2 | C=C(CO)C(O)(Cn1cncn1)c1ccc(Cl)cc1 (stereo not shown) [Example 447] | 0 | 0 | 30 | 0 | 0 | 24 | 46 | 0 | 3.2 (≈ 11.4 µM) | 0 | 46 | 0 | 24 |  |  |  |  |  | 
3 | N#CC[S+]([O-])c1ncnn1CC(O)(c1ccccc1F)C1(c2ccc(F)cc2)CO1 (stereo not shown) [Example 1468] | 0 | 0 | 93 | 0 | 60 | 0 | 2 |  |  | 0 | 77 | 0 | 46 | 40 |  |  |  |  | 
4 | C=C(c1ccc(F)cc1)C(O)(Cn1cncn1)C(C)C (stereo not shown) [Example 667] | 0 | 0 |  |  | 0 | 4 | 0 | 0 | 6.3 (≈ 22.9 µM) |  |  | 0 | 10 |  | 10 | 0 | 0 | 25 (≈ 90.8 µM) | pest or weed control at 20 ppm [3]: 0%; pest or weed control at 20 ppm [4]: 14%; pest or weed control at 20 ppm [14]: 13%; pest or weed control at 20 ppm [6]: 7%; pest or weed control at 20 ppm [7]: 0%; pest or weed control at 20 ppm [8]: 0%; pest or weed control at 20 ppm [11]: 39%
5 | C=C(c1ccccc1)C(O)(Cn1cncn1)c1ccc(Cl)s1 (stereo not shown) [Example 618] | 0 | 80 | 100 | 100 | 80 | 98 | 0 |  |  | 0 | 89 |  | 0 | 100 |  |  |  |  | 
6 | C=C(c1ccc(F)cc1)C(O)(Cn1cncn1)c1ccc(F)cc1 (stereo not shown) [Example 1, 2,3-Bis(4-fluorophenyl)-1-(1H-1,2,4-triazol-1-yl)-3-buten-2-ol] | 0 | 0 | 100 | 100 |  | 81 | 90 | 97 |  | 0 | 98 |  | 12 | 62 | 100 | 100 | 80 | 6.3 (≈ 19.2 µM) | MIC values, C. albicans ([9]; 30°, 24 hours): ≤ 0.01 µg/mL
7 | C=C(c1ccccc1)C(O)(Cn1cncn1)c1ccc(F)cc1 (stereo not shown) [Example 49, 2-(4-Fluorophenyl)-3-phenyl-1-(1H-1,2,4-triazol-1-yl)-3-buten-2-ol] | 0 | 0 | 100 | 100 |  | 62 | 76 | 96 | 0.03 (≈ 0.097 µM) | 0 | 100 |  | 0 | 89 | 100 | 90 | 60 | 12.5 (≈ 40.4 µM) | 
8 | C=C(c1ccccc1)[C@](O)(Cn1cncn1)c1ccc(F)cc1 [Example 1276] | 0 | 0 | 100 |  |  | 96 | 1 | 97 | 0.03 (≈ 0.097 µM) | 0 | 100 |  | 0 | 100 | 100 | 70 | 50 | 1.6 (≈ 5.17 µM) | pest or weed control at 20 ppm [3]: 100%; pest or weed control at 20 ppm [4]: 100%; pest or weed control at 20 ppm [14]: 93%; pest or weed control at 20 ppm [6]: 86%; pest or weed control at 20 ppm [7]: 1%; pest or weed control at 20 ppm [8]: 52%; pest or weed control at 20 ppm [11]: 100%
9 | C=C(c1ccc(F)cc1)C(O)(Cn1cncn1)c1ccc(Cl)cc1Cl (stereo not shown) [Example 2] | 0 | 0 | 100 | 100 |  | 93 | 95 | 100 | ≤ 0.4 | 0 | 98 |  | 99 | 62 | 100 | 100 | 80 | 1.6 (≈ 4.23 µM) | 
